Some results are limits rather than exact numbers.

The target of the first assay is T1, IKK2 (IKKβ) (Homo sapiens, UniProt O14920).
T1 construct: made in house; host or cells: baculovirus-infected insect cells (SF9)
T1 sequence (O14920 1-756): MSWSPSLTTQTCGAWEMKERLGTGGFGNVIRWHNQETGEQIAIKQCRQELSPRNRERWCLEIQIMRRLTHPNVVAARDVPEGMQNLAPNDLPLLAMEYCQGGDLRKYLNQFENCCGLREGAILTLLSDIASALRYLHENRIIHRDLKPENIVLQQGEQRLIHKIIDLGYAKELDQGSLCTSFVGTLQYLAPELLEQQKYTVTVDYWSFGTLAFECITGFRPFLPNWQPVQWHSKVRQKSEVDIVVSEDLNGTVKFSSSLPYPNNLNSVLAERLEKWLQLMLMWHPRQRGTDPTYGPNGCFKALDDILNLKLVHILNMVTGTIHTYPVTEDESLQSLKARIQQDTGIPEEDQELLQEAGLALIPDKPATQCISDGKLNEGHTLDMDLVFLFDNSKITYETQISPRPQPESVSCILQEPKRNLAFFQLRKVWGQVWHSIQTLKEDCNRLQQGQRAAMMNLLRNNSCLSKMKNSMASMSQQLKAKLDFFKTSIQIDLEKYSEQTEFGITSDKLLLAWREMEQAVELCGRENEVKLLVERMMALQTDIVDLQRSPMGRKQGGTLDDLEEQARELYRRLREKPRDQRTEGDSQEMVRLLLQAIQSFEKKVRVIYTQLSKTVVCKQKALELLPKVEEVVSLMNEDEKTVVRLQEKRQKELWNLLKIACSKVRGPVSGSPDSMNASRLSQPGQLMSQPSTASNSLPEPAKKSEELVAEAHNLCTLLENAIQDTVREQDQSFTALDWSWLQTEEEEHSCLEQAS
Kind of assay: IKK2 (IKKβ) resin enzyme assay. Conditions: Table 2; read-out: IKK2 Resin Avg. IC50. It counts as biochemical. An excerpt: cDNAs of human IKK1 and IKK2 were amplified by reverse transcriptase-polymerase chain reaction from human placental RNA (Clonetech). hIKK1 was subcloned into pFastBac HTa (Life Technologies) and expressed as N-terminal His6-tagged fusion protein. The hIKK2 cDNA was amplified using a reverse oligonucleotide primer which incorporated the peptide sequence for a FLAG-epitope tag at the C-terminus of the IKK2 coding region (DYKDDDDKD). The hIKK2:FLAG cDNA was subcloned into the baculovirus vector pFastBac. The rhIKK2 ([…]) mutant was constructed in the same vector used for wild type rhIKK2 using a QuikChange™ mutagenesis kit (Stratagene). Viral stocks of each construct were used to infect insect cells grown in 40L suspension culture. […] Cell lysates were stored at −80° C. until purification of the recombinant proteins was undertaken as described below.
Isolation of rhIKK2 Homodimer
A 10 liter culture of baculovirus-expressing IKK2 tagged with FLAG peptide was centrifuged and the cell pellet (MOI=0.1 and I=72 hrs) was re-suspended in buffer A. These cells were microfluidized, and centrifuged at 100,000×g for 45 min. Supernatant was passed over a G-25 column equilibrated with Buffer A. Protein peak was collected and incubated with anti-FLAG affinity resin on a rotator overnight in buffer B. The resin was washed in batch with 10-15 bed volumes of buffer C. Washed resin was poured into a column and rhIKK2 homodimer was eluted using 5 bed volumes of buffer B containing FLAG peptide. 5 mM DTT, 0.1% NP-40 and BSA (concentrated to 0.1% in final amount) was added to the eluted enzyme before concentrating in using an Amicon membrane with a molecular weight cut-off of 30 kDa. Enzyme was aliquoted and stored at −80° C.
IKKβ kinase activity was measured using a biotinylated IκBα peptide (Gly-Leu-Lys-Lys-Glu-Arg-Leu-Leu-Asp-Asp-Arg-His-Asp-Ser32-Gly-Leu-Asp-Ser36-Met-Lys-Asp-Glu-Glu) (American Peptide Co.). […] contained 5 μM biotinylated IκBα peptide, 0.1 μCi/reaction [γ-^33P] ATP (Amersham) (about 1×10^5 cpm), 1 μM ATP (Sigma), 1 mM DTT (Sigma), 2 mM MgCl2 (Sigma), 2 mM MnCl2 (Sigma), 10 mM NaF (Sigma), 25 mM Hepes (Sigma) buffer, pH 7.6 and 20 μl enzyme solution and […] inhibitor in a final volume of 50 μl. After incubation at 25° C. for 30 min, 150 μl resin (Dowex anion-exchange resin AG1X8 200-400 mesh) in 900 mM formate, pH 3.0 was added to each well to stop the reaction. Resin was allowed to settle for one hour and 50 ul of supernatant was removed to a Micolite-2 flat bottom plate (Dynex). 150 μl of scintillation fluid (Microscint 40) (Packard) was added to each well. Incorporation of [γ-^33P] ATP was measured using a Top-Count NXT (Packard).
As a reminder, the IC50 is the midpoint of a concentration-inhibition curve. Turning to `CC(=O)N1Cc2c(C(N)=O)nn(-c3ccc4c(c3)OCO4)c2-c2cc(N)ccc21` [Example 17, 5-acetyl-8-amino-1-(1,3-benzodioxol-5-yl)-4,5-dihydro-1H-pyrazolo[4,3-c]quinoline-3-carboxamide acetate], the half-maximal inhibitory concentration (IC50) is at most 1000 nM. On to `CC(=O)N1Cc2c(C(N)=O)nn(-c3ccc(F)cc3)c2-c2cc(NS(C)(=O)=O)ccc21` [Example 25, 5-acetyl-1-(4-fluorophenyl)-8-[(methylsulfonyl)amino]-4,5-dihydro-1H-pyrazolo[4,3-c]quinoline-3-carboxamide], for which the IC50 is below 1000 nM. The same measure, in the same setting: in the case of `CC(=O)N1Cc2c(C(N)=O)nn(-c3ccc4c(c3)OCO4)c2-c2cc(NC(=O)c3ccccc3Cl)ccc21` [Example 18, 5-acetyl-1-(1,3-benzodioxol-5-yl)-8-[(2-chlorobenzoyl)amino]-4,5-dihydro-1H-pyrazolo[4,3-c]quinoline-3-carboxamide] it was at most 1000 nM; in that of `CC(=O)N1Cc2c(C(N)=O)nn(-c3ccc4c(c3)OCO4)c2-c2cc(NC(=O)c3ccncc3Cl)ccc21` [Example 22, 5-acetyl-1-(1,3-benzodioxol-5-yl)-8-[(3-chloroisonicotinoyl)amino]-4,5-dihydro-1H-pyrazolo[4,3-c]quinoline-3-carboxamide], below 1000 nM.

Regarding `CC(=O)N1Cc2c(C(N)=O)nn(-c3ccc4c(c3)OCO4)c2-c2cc(NS(C)(=O)=O)ccc21` [Example 23, 5-acetyl-1-(1,3-benzodioxol-5-yl)-8-[(methylsulfonyl)amino]-4,5-dihydro-1H-pyrazolo[4,3-c]quinoline-3-carboxamide], the half-inhibitory concentration (IC50) is below 1000 nM.

The assay is the same for the next values; noted with them: Table 3; read-out: IKK2 Resin IC50.
Regarding `NC(=O)c1nn(-c2ccc3c(c2)OCO3)c2c1COc1ccc(NC(=O)c3cc(N)ccc3Cl)cc1-2` [Example 33, 8-[(5-amino-2-chlorobenzoyl)amino]-1-(1,3-benzodioxol-5-yl)-1,4-dihydrochromeno[4,3-c]pyrazole-3-carboxamide], the IC50 was at most 1000 nM. On to `NC(=O)c1nn(-c2ccc3c(c2)OCO3)c2c1COc1ccc(NC(=O)c3ccccc3Cl)cc1-2` [Example 34, 1-(1,3-benzodioxol-5-yl)-8-[(2-chlorobenzoyl)amino]-1,4-dihydrochromeno[4,3-c]pyrazole-3-carboxamide], for which the IC50 was at most 1000 nM. The same measure, in the same setting: for `NC(=O)c1nn(-c2ccc3c(c2)OCO3)c2c1COc1ccc(NC(=O)c3cccc(Cl)c3Cl)cc1-2` [Example 45, 1-(1,3-benzodioxol-5-yl)-8-[(2,3-dichlorobenzoyl)amino]-1,4-dihydrochromenol[4,3-c]pyrazole-3-carboxamide] the value was at least 100000 nM; for `NC(=O)c1nn(-c2ccc3c(c2)OCO3)c2c1COc1ccc(NC(=O)c3cc4c(cc3Cl)OCO4)cc1-2` [Example 31, 1-(1,3-benzodioxol-5-yl)-8-{[(6-chloro-1,3-benzodioxol-5-yl)carbonyl]amino}-1,4-dihydrochromeno[4,3-c]pyrazole-3-carboxamide], at most 1000 nM; for `NC(=O)c1nn(-c2ccc3c(c2)OCO3)c2c1COc1ccc(NC(=O)c3ccncc3Cl)cc1-2` [Example 32, 1-(1,3-benzodioxol-5-yl)-8-[(3-chloroisonicotinoyl)amino]-1,4-dihydrochromeno[4,3-c]pyrazole-3-carboxamide], at most 1000 nM.

The same assay, now with this note: Table 4; read-out: IKK2 Resin IC50.
For the compound `NC(=O)c1nn(-c2ccc(F)cc2)c2c1COc1ccc(NC(=O)c3cccnc3Cl)cc1-2` [Example 47, 8-{[(2-chloropyridin-3-yl)carbonyl]amino}-1-(4-fluorophenyl)-1,4-dihydrochromenol[4,3-c]pyrazole-3-carboxamide], the IC50 is at most 1000 nM. On the same count and under the same terms, for `NC(=O)c1nn(-c2cccc(F)c2)c2c1COc1ccc(NC(=O)c3cccnc3Cl)cc1-2` [Example 48, 8-{[(2-chloropyridin-3-yl)carbonyl]amino}-1-(3-fluorophenyl)-1,4-dihydrochromenol[4,3-c]pyrazole-3-carboxamide] the value was at most 1000 nM. Same read-out and setting: in the case of `NC(=O)c1nn(-c2ccc(F)cc2)c2c1COc1ccc(NC(=O)c3ccncc3Cl)cc1-2` [Example 53, 8-[(3-chloroisonicotinoyl)amino]-1-(4-fluorophenyl)-1,4-dihydrochromeno[4,3-c]pyrazole-3-carboxamide] it was below 1000 nM.

The assay is the same for the next values; noted with them: Table 5; read-out: IKK2 Resin IC50.
Regarding `C[S+]([O-])c1ccc(-n2nc(C(N)=O)c3c2-c2cc(NC(=O)c4ccccc4Cl)ccc2OC3)cc1` (stereo not shown) [Example 55, 8-[(2-chlorobenzoyl)amino]-1-[4-(methylsulfinyl)phenyl]-1,4-dihydrochromeno[4,3-c]pyrazole-3-carboxamide], the IC50 is at least 1000 nM. On to `CS(=O)(=O)c1ccc(-n2nc(C(N)=O)c3c2-c2cc(NC(=O)c4ccccc4Cl)ccc2OC3)cc1` [Example 54, 8-[(2-chlorobenzoyl)amino]-1-[4-(methylsulfonyl)phenyl]-1,4-dihydrochromeno[4,3-c]pyrazole-3-carboxamide], for which the 50% inhibitory concentration (IC50) is at most 1000 nM. Same read-out and setting: for `CSc1ccc(-n2nc(C(N)=O)c3c2-c2cc(NC(=O)c4ccccc4Cl)ccc2OC3)cc1` [Example 57] the value was at least 10000 nM.
